Measurements as given in patent US12128035B2, “Activating pyruvate kinase R” (Novo Nordisk Health Care AG, priority 2021, dated 2024).
Entries after “also recorded” stand apart in the source; their conditions may differ.

Key:
Format in all cases: in vivo, human
[1] = Phase 1: hematologic and hemolytic laboratory parameters in SCD patients; conditions: SCD single 700 mg dose
[2] = system: p50 (PO2 at 50% hemoglobin saturation); test: Phase 1 SAD/MAD: p50 (Hemox Analyzer) in healthy volunteers; conditions: for Mean p50 Value: 24 hours after first dose on day 14; for Mean Absolute Change in p50 / Mean Percentage Change in p50: 24 hours after first dose on day 14, relative to baseline; for median reduction in p50: all dose levels; for Mean Absolute Change in p50 (mmHg): 24 hours after dose, relative to baseline
Procedure: In the SAD cohorts, the subjects' p50 (PO2 at 50% hemoglobin saturation) were determined 24-hours post-dose. p50 measured 24 hours after a single dose of Compound 1 were reduced at all dose levels tested (median reduction ranged from ˜3-5 mmHg). Table 17 reports the mean absolute change in p50, relative to baseline, measured 24 hours after a single dose of Compound 1 (200 mg, 400 mg, 700 mg, or 1000 mg) or placebo in healthy volunteers.
In the MAD cohorts, the subjects' p50 (PO2 at 50% hemoglobin saturation) were determined on day 14. p50 values measured after 14 days of twice daily dosing were reduced at all dose levels tested (median reduction ranged from ˜3-5 mmHg). Table 19 reports the mean p50 value and the mean absolute change and percentage change in p50, relative to baseline, measured 24 hours after the first dose given on day 14 in healthy volunteers who received daily doses of Compound 1 (100 mg BID, 200 mg BID, 300 mg BID, or 400 mg QD) or placebo for 14 days.
The oxygen affinity of RBCs was measured in patient blood using a Hemox Analyzer (TCS Scientific Corp.), an automatic system for the recording of blood oxygen equilibrium curves and related phenomena. The Hemox Analyzer was used according to standard methods to determine the hemoglobin-oxygen dissociation curves for whole blood samples, numerically characterized by the p50, the partial pressure of oxygen at which hemoglobin is 50% saturated. The operating principle of the Hemox-Analyzer is based on dual-wavelength spectrophotometry for the measurement of the optical properties of hemoglobin and a Clark electrode for measuring the oxygen partial pressure in millimeters of mercury. Whole blood is diluted and placed into a special plastic cuvette that is maintained at 37° C. To perform the analysis, a beam of polychromatic light is passed through the cuvette and is made monochromatic prior to reaching the photomultiplier detectors. In the case of hemoglobin, the wavelength of maximum absorbance is the measuring wavelength (560 nm), while the reference wavelength is at the isosbestic point at (570 nm). The absorbance at the isosbestic point remains unchanged during the deoxygenation process of the hemoglobin, however the measuring wavelength (560 nm) undergoes a drastic change in absorbance. This change is detected by the electronic circuitry and is plotted as the log/ratio change between the two wavelengths. The log/ratio measurement at 560 nm and 570 nm is utilized to measure the optical absorbance change during the deoxygenation of the hemoglobin. Simultaneously with the measurement of the hemoglobin absorbance, the oxygen concentration is directly measured in the sample using a Clark electrode. Under normal atmospheric conditions of 760 mm of mercury the oxygen concentration (i.e., the oxygen partial pressure) is 149 mm of mercury. This saturation point is used for full-scale calibration of the computer prior to starting the plotting of the curve. When the oxygen is being replaced by an inert gas (nitrogen) in a continuous procedure, hemoglobin becomes deoxygenated.

[3] = system: estradiol and testosterone levels; test: Circulating estradiol and testosterone in healthy subjects, 14 days; conditions: up to 14 days, 100-300 mg BID or 400 mg QD
Procedure: Effects on circulating levels of estradiol and testosterone in male and female healthy subjects receiving Compound 1 or placebo for a treatment period of 14 days were evaluated. Compound 1 was administered twice daily (BID) at dose levels of 100 mg, 200 mg, and 300 mg, and once daily (QD) at a dose level of 400 mg. Each dosing cohort was comprised of 9 subjects treated with Compound 1 and 3 subjects treated with placebo. Testosterone and estradiol levels were assessed prior to dosing (baseline), and then on days 8, 14 and 17.

[4] = Phase 1: safety (adverse events) in SCD patients
Procedure: In the SD cohort, 7 pts (2 males, 5 females, all HbSS) received 700 mg Compound 1 (n=5) or placebo (n=2).
All SCD patients who received a single 700 mg dose of Compound 1 or placebo were monitored for adverse events for 7 days. The incidence of treatment emergent adverse events (TEAEs) in SCD patients receiving Compound 1 (700 mg) or placebo are reported in Table 23. Six TEAEs were reported in 4 patients; all TEAEs were grade 1 and transient. Specifically, six TEAEs were reported in 4 of 7 (57%) patients, including 3 TEAEs (arthralgia, headache, palpitations) in 2 of 5 (40%) pts receiving Compound 1 and 3 TEAEs (back pain, myalgia, pruritis) in 2 of 2 (100%) pts receiving placebo; all TEAEs were grade 1 and transient. […] One possibly related TEAE (palpitations) occurred about 8 hours post dose. No other symptoms were observed, and the palpitations resolved in <1 minute. […] The single 700 mg dose of Compound 1 was considered tolerable, and the first multiple dose SCD cohort was initiated.
Based on data from the MAD1 (300 mg once daily for 14 days), Compound 1 is well-tolerated in patients with SCD. In all, eighteen TEAEs were reported in 7 of 9 patients in the MAD1 (300 mg once daily) cohort (N=9). These included (a) eight Grade 1 TEAEs, including 3 patients c/o headache, 1 each of nausea, constipation, somnolence, increased LDH and increased AST, of which two AEs considered to be possibly related to study treatment were reported by one patient each (1 AE of headache and 1 AE of nausea); (b) six Grade 2 TEAEs, including 3 uncomplicated sickle pain events (in 2 patients), 1 patient with N/V and 1 increased reticulocytes, of which no AEs were considered related to study treatment, all AEs of pain events were considered unrelated and consistent with each patient's SCD pain history, and all AEs were treated with patient's standard home pain medications (no SAE/no hospitalization); and (c) one Grade 4 TEAE of elevated creatine kinase, unrelated to study treatment. Non-treatment-related AEs were consistent with events experienced in this patient population. No treatment-related serious AEs were reported.

O=C([C@H](CO)c1ccccc1)N1CC2=C(C1)CN(S(=O)(=O)c1cnc3c(c1)OCCO3)C2 (single isomer, unassigned) [Compound 1]
Hb difference versus placebo ([1]; 24 h): ~0.9 g/dL | increase in Hb ([1]; 24 hours, range 0.3, 0.9): 0.5 g/dL | Mean p50 Value ([2]; HV 100 mg BID): 22.96 mmHg | Mean Absolute Change in p50 ([2]; HV 100 mg BID): −3.26 mmHg | Mean Percentage Change in p50 ([2]; HV 100 mg BID): −12.42% | Mean p50 Value ([2]; HV 200 mg BID): 22.33 mmHg | Mean Absolute Change in p50 ([2]; HV 200 mg BID): −5.34 mmHg | Mean Percentage Change in p50 ([2]; HV 200 mg BID): −19.33% | Mean p50 Value ([2]; HV 300 mg BID): 21.69 mmHg | Mean Absolute Change in p50 ([2]; HV 300 mg BID): −4.24 mmHg | Mean Percentage Change in p50 ([2]; HV 300 mg BID): −16.05% | Mean p50 Value ([2]; HV 400 mg QD): 21.75 mmHg | Mean Absolute Change in p50 ([2]; HV 400 mg QD): −4.09 mmHg | Mean Percentage Change in p50 ([2]; HV 400 mg QD): −15.76% | median reduction in p50 ([2]; HV MAD cohorts, after 14 days of dosing): 3-5 mmHg | Mean Maximum Percent Change from Baseline, p50 ([2]; HV MAD, all doses and timepoints (N = 36)): −15.9% | median reduction in p50 ([2]; HV SAD, 24 hours after a single dose): 3-5 mmHg | Mean Maximum Percent Change from Baseline, p50 ([2]; HV SAD, all doses and timepoints (N = 24)): −15.6% | Mean Absolute Change in p50 (mmHg) ([2]; HV single 200 mg): −2.91 mmHg | Mean Absolute Change in p50 (mmHg) ([2]; HV single 400 mg): −3.41 mmHg | Mean Absolute Change in p50 (mmHg) ([2]; HV single 700 mg): −4.85 mmHg | Mean Absolute Change in p50 (mmHg) ([2]; HV single 1000 mg): −5.05 mmHg | testosterone and estradiol levels [3]: no effect on estradiol and testosterone levels; also recorded: No effect on testosterone or estradiol levels; also recorded: no statistically significant changes and no clinically meaningful trends | Any TEAE, n (%) ([4]; SCD 300 mg × 14 days (n = 7)): 6 (86%) n (%) | Any serious adverse event (SAE), n (%) ([4]; SCD 300 mg × 14 days (n = 7)): 0 n (%) | Related to study drug, n (%) ([4]; SCD 300 mg × 14 days (n = 7)): 2 (29%) n (%) | tolerability ([4]; SCD 400 mg QD, 84 days (12 weeks), open-label): well-tolerated | serious adverse events / TEAEs leading to withdrawal ([4]; SCD SD cohort): No serious adverse events (SAEs) or TEAEs leading to pt withdrawal were reported | Any TEAE, n (%) ([4]; SCD single 700 mg (N = 5)): 2 (40) n (%) | Related to study drug, n (%) ([4]; SCD single 700 mg (N = 5)): 1 (20) n (%)
